Measurements taken from patent US20180289620A1, “NANOPARTICLE FORMULATIONS AND USES THEREOF” (Abraxis BioScience, LLC, priority 2008, published 2018).
pIC50: −log10 of the molar value.

Legend:
[1] = Log P of hydrophobic taxane derivatives; type: physicochemical; details: method not stated
[2] = Pharmacokinetics of Nab-2 in monkeys; type: in vivo; details: cynomolgus monkey, label = analyte; for concentration at […]: time 0.083 hr
Source text: The day of the initial dose administration was designated Study Day 1, with subsequent days consecutively numbered. Days on study prior to the initial dose administration were consecutively numbered with the final day of acclimation referenced as day −1.
Three non-naïve, male cynomolgus monkeys, confirmed to have no prior exposure to albumin, were assigned to dose groups as specified in Table 6 shown below. Animals weighed 5.4-6.7 kg and were 4 to 7 years of age at study initiation.
All animals were dosed once weekly, on days 1, 8 and 15. Animals in Groups 3 and 4 were administered Nab-2 (lot: ABI139-2-83) at 5 and 10 mg/kg, respectively, and the Group 5 animal was administered Nab-2 at 20, 10 and 10 mg/kg (on days 1, 8 and 15, respectively) via 30 minute intravenous infusion. Clinical observations were performed twice daily and body weights were recorded weekly throughout the study.

[3] = test system: MX-1 (human breast carcinoma) cells; test: In vitro growth inhibition (cytotoxicity, CellTiter Blue Cell Viability Assay); type: cell-based; details: cells exposed 72 hr
Protocol: A cytotoxicity assay was quantitated using the Promega CellTiter Blue Cell Viability Assay. Briefly, cells (5000 cells/well) were plated onto 96-well microtiter plates in RPMI 1640 medium supplemented with 10% FBS and incubated at 37° C. in a humidified 5% CO2 atmosphere. After 24 hr., cells were exposed to various concentrations of hydrophobic taxane derivative in DMSO and cultured for another 72 hr, 100 uL of media were removed and 20 uL of Promega CellTiter Blue reagent were added to each well and shaken to mix. After 4 hours of incubation at 37° C. in a humidified 5% CO2 atmosphere, the plates were read at 544 ex/620 em. The fluorescence produced is proportional to the number of viable cells. After plotting fluorescence produced against drug concentration, the IC50 was calculated as the […] of the resulting non-linear regression.

With `CC(=O)O[C@@]12CO[C@@H]1C[C@H](O)[C@@]1(C)C(=O)[C@H](O)C3=C(C)[C@@H](OC(=O)[C@H](O)[C@@H](NC(=O)OC(C)(C)C)c4ccccc4)C[C@@](O)([C@@H](OC(=O)c4ccccc4)C12)C3(C)C` (some centres unmarked) [Docetaxel, docetaxel, reference compound] the “Log P” value [1] was 4.20, the AUCINF/D ([2]; Nab-2 IV 5 mg/kg) was 35 kg·ng·h/mL/mg and the Cmax/D ([2]; Nab-2 IV 5 mg/kg) was 8 kg·ng/mL/mg. For the same compound, the HL_Lambda_z ([2]; Nab-2 IV 5 mg/kg) was 1.4 h, the AUCINF/D ([2]; Nab-2 IV 10 mg/kg) was 31 kg·ng·h/mL/mg and the Cmax/D ([2]; Nab-2 IV 10 mg/kg) was 10 kg·ng/mL/mg. For the same compound, the HL_Lambda_z ([2]; Nab-2 IV 10 mg/kg) was 3.2 h, the AUCINF/D ([2]; Nab-2 IV 20 mg/kg) was 20 kg·ng·h/mL/mg and the Cmax/D ([2]; Nab-2 IV 20 mg/kg) was 19 kg·ng/mL/mg. For the same compound, the HL_Lambda_z ([2]; Nab-2 IV 20 mg/kg) was 1.4 h, the AUC(0-inf) ([2]; male, blood, Nab-2 IV 5 mg/kg) was 175 ng·h/mL and the Cmax ([2]; male, blood, Nab-2 IV 5 mg/kg) was 41 ng/mL. It also gave a Tmax ([2]; male, blood, Nab-2 IV 5 mg/kg) of 15 min, a concentration at 0 hr ([2]; male, blood, Nab-2 IV 5 mg/kg) of 0 ng/mL and a concentration at […] ([2]; male, blood, Nab-2 IV 5 mg/kg) of 36.7 ng/mL. For the same compound, the concentration at 0.25 hr ([2]; male, blood, Nab-2 IV 5 mg/kg) was 40.7 ng/mL, the concentration at 0.5 hr ([2]; male, blood, Nab-2 IV 5 mg/kg) was 35.5 ng/mL and the concentration at 1 hr ([2]; male, blood, Nab-2 IV 5 mg/kg) was 32.1 ng/mL. For the same compound, the concentration at 2 hr ([2]; male, blood, Nab-2 IV 5 mg/kg) was 34.1 ng/mL, the concentration at 8 hr ([2]; male, blood, Nab-2 IV 5 mg/kg) was 1.15 ng/mL and the AUC(0-inf) ([2]; male, blood, Nab-2 IV 10 mg/kg) was 314 ng·h/mL. The Cmax ([2]; male, blood, Nab-2 IV 10 mg/kg) was 99 ng/mL, the concentration at 0 hr ([2]; male, blood, Nab-2 IV 10 mg/kg) was 0 ng/mL and the concentration at […] ([2]; male, blood, Nab-2 IV 10 mg/kg) was 99.4 ng/mL. The concentration at 0.25 hr ([2]; male, blood, Nab-2 IV 10 mg/kg) was 70.1 ng/mL, the concentration at 0.5 hr ([2]; male, blood, Nab-2 IV 10 mg/kg) was 63.4 ng/mL and the concentration at 1 hr ([2]; male, blood, Nab-2 IV 10 mg/kg) was 47.5 ng/mL. It also gave a concentration at 2 hr ([2]; male, blood, Nab-2 IV 10 mg/kg) of 44.2 ng/mL, a concentration at 8 hr ([2]; male, blood, Nab-2 IV 10 mg/kg) of 0 ng/mL and an AUC(0-inf) ([2]; male, blood, Nab-2 IV 20 mg/kg) of 394 ng·h/mL. The Cmax ([2]; male, blood, Nab-2 IV 20 mg/kg) was 382 ng/mL, the concentration at 0 hr ([2]; male, blood, Nab-2 IV 20 mg/kg) was 0 ng/mL and the concentration at […] ([2]; male, blood, Nab-2 IV 20 mg/kg) was 382 ng/mL. The concentration at 0.25 hr ([2]; male, blood, Nab-2 IV 20 mg/kg) was 232 ng/mL, the concentration at 0.5 hr ([2]; male, blood, Nab-2 IV 20 mg/kg) was 157 ng/mL and the concentration at 1 hr ([2]; male, blood, Nab-2 IV 20 mg/kg) was 90.5 ng/mL. The concentration at 2 hr ([2]; male, blood, Nab-2 IV 20 mg/kg) was 69.2 ng/mL and the concentration at 8 hr ([2]; male, blood, Nab-2 IV 20 mg/kg) was 0 ng/mL.
`CCCCCCCCCC(=O)O[C@@H](C(=O)O[C@H]1C[C@@]2(O)[C@@H](OC(=O)c3ccccc3)C3[C@](C)(C(=O)[C@H](O)C(=C1C)C2(C)C)[C@@H](O)C[C@H]1OC[C@@]31OC(C)=O)[C@@H](NC(=O)OC(C)(C)C)c1ccccc1` (some centres unmarked) [Compound 3, 2′-Decanoyl-Docetaxel] showed a pIC50 [3] of 5.06.
For `CCC(=O)O[C@@H](C(=O)O[C@H]1C[C@@]2(O)[C@@H](OC(=O)c3ccccc3)C3[C@](C)(C(=O)[C@H](O)C(=C1C)C2(C)C)[C@@H](O)C[C@H]1OC[C@@]31OC(C)=O)[C@@H](NC(=O)OC(C)(C)C)c1ccccc1` (some centres unmarked) [Compound 5, 2′-Propionyl-Docetaxel], the pIC50 [3] was 3.68 and the logP [1] was 5.31.
